# US9186339B2, “Use of transcriptome modifying agents and chemotherapy or radiotherapy against cancer” (UNIVERSIDAD NACIONAL AUTONOMA DE MEXICO, priority 2005, dated 2015)
# Read-outs that look alike come from different tables or passages of the source.
# Tests used:
# [1] = Clinical study of magnesium valproate: toxicity; assay type: in vivo, human; settings: 20, 30, 40 mg/Kg for 5 days
# Description: (§1) Twelve patients with this cancer of recent diagnosis and without previous treatment received the following doses of magnesium valproate in groups of 4 patients. Group 1, 20 mg/Kg, Group 2, 30 mg/kg, Group 3, 40 mg/Kg. A biopsy of the tumor and a blood sample were taken before the treatment and on the following day (day 6) since valproic acid or a salt thereof such as magnesium valproate was administered for 5 days in divided doses every 8 hours. The hyperacetylation of Histone H3 was analyzed in the samples and histone H4 in the tumor by Western blot, as well as the activity of histone deacetylases in nuclear extracts of the tumor using a calorimetric essay, as well as the levels of valproic acid in serum. The level of expression of the genes p21 and CAR was also analyzed in the pos-treatment biopsies. The toxicity of the treatment was recorded at the end of the cycle.
# [2] = system: Histone H3 and histone H4; experiment: Clinical study of magnesium valproate: histone hyperacetylation in tumor by Western blot; assay type: in vivo, human; settings: of 12 patients, after treatment
# Description: as §1
# histone deacetylases = experiment: Clinical study of magnesium valproate: histone deacetylase activity in nuclear extracts of the tumor; assay type: in vivo, human
# Description: as §1
# p21 = experiment: Clinical study of magnesium valproate: gene expression in post-treatment biopsies; assay type: in vivo, human; settings: FIG. 8
# Description: as §1
# HeLa cells = experiment: MTT cell viability assay, chemotherapeutic agent plus composition; assay type: cell-based; settings: for viability reduction: chemotherapeutic agent plus hydralazine 10 μM and magnesium valproate 1 mM, viability on day 4
# Description: With this objective, three drugs were selected that are representative of his class: alkylating agents as cisplatin, antibiotic as doxorrubicin, antimetabolite as gemcitabine. The cells were plated in 96-well plates (Falcon Becton Dickinson, Franklin Lakes, N.J.) at a density of 1.5-2.5×10^3 cells/well in 0.1 ml of complete media. The following day the cells were treated with the chemotherapeutic agent at the concentration indicated in FIGS. 2A, 2B y 2C plus hydralazine at 10 μM and valproic acid or magnesium valproate at 1 mM. On the next day, the media containing the drugs was removed and fresh hydralazine and magnesium valproate were added at same concentration for another additional 48 hours. On the following day (day 4) cell viability was measured using an MTT assay. Briefly, 50 μl of MTT reagent in phosphate buffered solution were added to each well. […] Thereafter it is read spectrophotometrically on a ELISA reader. All the assays were carried out in triplicate. The cytotoxic effect of each treatment was expressed in the percentage of cell viability relative to the untreated control (% control) which is defined as [(A570nm treated cells)/A570nm untreated cells)]×100.
# [3] = system: sarcoma HT1080 cellular line tumors; experiment: HT1080 sarcoma model in immunodeficient mice; assay type: in vivo, athymic mice
# Description: Once the capacity of hydralazine and valproic acid or a salt thereof such as magnesium valproate to alter the expression génica in the patients' tumors was assessed, we investigate if the composition of these transcriptome modifying agents increased the antitumoral effect of the chemotherapy in a model of sarcoma in immunodeficient mice. With this goal, groups of 6 female athymic mice were studied, which were injected with 6 million cells of the sarcoma HT1080 cellular line. Once the tumors were formed, the animals were treated systemically with hydralazine and valproic acid or a salt thereof such as magnesium valproate with doses equivalent to those used in the patients. The groups of treatment were as follows: 1) control treated with saline solution, 2) treated weekly with adriamycin, 3) treated with the composition of hydralazine and valproato for 7 days followed by the same weekly treatment with adriamycin. […] This phenomenon occurs commonly in the treatment of the cancer in the patients, where often an entire or almost entire antitumoral response is observed to relapse later. The composition of the present invention therefore might induce extended or complete remissions of the tumors.
# [4] = 50-150 mg/day for 10 days, cancer patients
# Description: (§2) Whit this goal, hydralazine was administered to groups of 4 patients each group at doses of: 1) 50 mg/day, 2) 75 mg/day, 3) 100 mg/day and 4) 150 mg/day for 10 days. Biopsies and peripheral blood samples were taken before commencing treatment and at day 11. The state of pre- and post-treatment methylation was analyzed for the promoters of the following genes: APC, MGMT; ER, GSTP1, DAPK, RARβ, FHIT and p16 as well as the state of expression of their messengers by RT-PCR. Also the state of methylation of the gene subject to parental unactivation H19, and a genomic clone which normally is found methylated was evaluated, as well as the global content of methylated citokines in the genome. The toxicity to hydralazine was evaluated using the escale from the U.S. National Cancer Institute (CTC NCI). […] FIG. 3A.
# [5] = system: expression of suppressive genes (APC, MGMT, ER, GSTP1, DAPK, RARβ, FHIT, p16)
# Description: as §2
# [6] = system: promoters of APC, MGMT, ER, GSTP1, DAPK, RARβ, FHIT and p16; settings: post-treatment biopsies
# Description: as §2
structure (smiles),measurement,setting,value
"CCCC(CCC)C(=O)O [magnesium valproate, 2-propylpentanoic acid]",tolerability,[1],well tolerated
same,patients with Grade 2 drowsiness,[1]; of 12 patients,nine
same,patients with hyperacetylation in both histones,[2],six
same,patients with hyperacetylation of H3,[2],nine
same,patients with hyperacetylation of H4,[2],seven
same,patients with no changes in activity of histone deacetylases,histone deacetylases,two
same,patients in whom activity of histone deacetylases diminished,histone deacetylases; two-tailed t test p<0.0264,8 patients
same,expression of p21,p21,increases its expression
COc1cccc2c1C(=O)c1c(O)c3c(c(O)c1C2=O)C[C@@](O)(C(=O)CO)C[C@@H]3O[C@H]1C[C@H](N)[C@H](O)[C@H](C)O1 [adriamycin],viability reduction,HeLa cells,27%
same,tumor re-growth after 3 weeks,"[3]; weekly adriamycin alone, or composition for 7 days followed by weekly adriamycin, FIG. 9",the tumors grow again
same,antitumoral effect,"[3]; weekly adriamycin, 3 weeks after treatment",almost complete antitumoral effect
N.N.[Cl][Pt][Cl] [cisplatin],viability reduction,HeLa cells,37%
same,IC50,HeLa cells; read-out: inhibitory concentration 50 (IC50),12 µM
Nc1ccn([C@@H]2O[C@H](CO)[C@@H](O)C2(F)F)c(=O)n1 [gemcitabine],viability reduction,HeLa cells,37%
"NNc1nncc2ccccc12 [hydralazine, 1-hydrazinophthalazine]",tolerability,[4],well tolerated
same,undesirable effects registered,[4],"nausea, sickness, fatigue, headache and palpitations"
same,effect on genic expression in patients with cancer,[5]; dose between 50 and 150 mg,effective to alter the genic expression
same,cases demethylated post-treatment that re-expressed the gene,[5]; of the 12 informative cases,9 cases
same,percentage of demethylation,[6]; hydralazine 50 mg/day for 10 days,40%
same,percentage of demethylation,[6]; hydralazine 75 mg/day for 10 days,52%
same,percentage of demethylation,[6]; hydralazine 100 mg/day for 10 days,43%
same,percentage of demethylation,[6]; hydralazine 150 mg/day for 10 days,32%
same,"frequency of demethylation, p16",[6]; 2 out of 3,67%
same,"frequency of demethylation, MGMT",[6]; 2 out of 13 samples,15%
